Where two headings read alike, the source gives them in different places.
Molecular target: T1, human recombinant mGluR5 receptor (Homo sapiens, UniProt P41594)
T1 construct: expressed in transfected cells; expression induced with doxycycline
Assay: mGluR5 in vitro functional assay (aequorin cell line, inhibition of glutamate EC80 response)
Assay type: cell-based
Conditions: aequorin cell line expressing human mGluR5, reference agonist glutamate at EC80, obtained in duplicate, read-out: IC50
Experimental: B. mGluR5 In Vitro Functional Assay
The functional assay utilized an aequorin cell line expressing human recombinant mGluR5 receptor, an inducible cell line that expresses the human receptor under the control of a promoter induced by doxycycline.
mGluR5 cells in mid-log phase, grown 18 hours prior to the test in antibiotic-free media supplemented with doxycycline (600 ng/mL), were detached by gentle flushing with PBS-EDTA ([…]). The cells were recovered by centrifugation and resuspended in assay buffer (HBSS, […], 3 ug/mL glutamate-pyruvate transaminase, […] MEM sodium pyruvate, 0.1% BSA protease-free). Cells were incubated at room temperature for at least 4 hours with Coelenterazine h (Molecular Probes). The cell suspension (60 uL) containing the test compound was mixed with a solution of reference agonist (30 uL) at its EC80, following an incubation of 3 min. after the first injection. The resulting emission of light was recorded using a Hamamatsu Functional Drug Screening System 6000 (FDSS 6000). To standardize the emission of recorded light (determination of the “100% signal’) across plates and across different experiments, some of the wells contained 100 uM digitonin or a saturating concentration (20 mM) of ATP. Plates also contained the reference agonist (glutamate) at a concentration equivalent to the EC80 obtained during assay validation. Percentages of inhibition were calculated on the basis of the activation induced by the reference agonist at a concentration equal to the EC80. Dose-response data were analyzed with XLFit (IDBS) software using nonlinear regression applied to a sigmoidal dose-response model.

T1 sequence (P41594 21-1212): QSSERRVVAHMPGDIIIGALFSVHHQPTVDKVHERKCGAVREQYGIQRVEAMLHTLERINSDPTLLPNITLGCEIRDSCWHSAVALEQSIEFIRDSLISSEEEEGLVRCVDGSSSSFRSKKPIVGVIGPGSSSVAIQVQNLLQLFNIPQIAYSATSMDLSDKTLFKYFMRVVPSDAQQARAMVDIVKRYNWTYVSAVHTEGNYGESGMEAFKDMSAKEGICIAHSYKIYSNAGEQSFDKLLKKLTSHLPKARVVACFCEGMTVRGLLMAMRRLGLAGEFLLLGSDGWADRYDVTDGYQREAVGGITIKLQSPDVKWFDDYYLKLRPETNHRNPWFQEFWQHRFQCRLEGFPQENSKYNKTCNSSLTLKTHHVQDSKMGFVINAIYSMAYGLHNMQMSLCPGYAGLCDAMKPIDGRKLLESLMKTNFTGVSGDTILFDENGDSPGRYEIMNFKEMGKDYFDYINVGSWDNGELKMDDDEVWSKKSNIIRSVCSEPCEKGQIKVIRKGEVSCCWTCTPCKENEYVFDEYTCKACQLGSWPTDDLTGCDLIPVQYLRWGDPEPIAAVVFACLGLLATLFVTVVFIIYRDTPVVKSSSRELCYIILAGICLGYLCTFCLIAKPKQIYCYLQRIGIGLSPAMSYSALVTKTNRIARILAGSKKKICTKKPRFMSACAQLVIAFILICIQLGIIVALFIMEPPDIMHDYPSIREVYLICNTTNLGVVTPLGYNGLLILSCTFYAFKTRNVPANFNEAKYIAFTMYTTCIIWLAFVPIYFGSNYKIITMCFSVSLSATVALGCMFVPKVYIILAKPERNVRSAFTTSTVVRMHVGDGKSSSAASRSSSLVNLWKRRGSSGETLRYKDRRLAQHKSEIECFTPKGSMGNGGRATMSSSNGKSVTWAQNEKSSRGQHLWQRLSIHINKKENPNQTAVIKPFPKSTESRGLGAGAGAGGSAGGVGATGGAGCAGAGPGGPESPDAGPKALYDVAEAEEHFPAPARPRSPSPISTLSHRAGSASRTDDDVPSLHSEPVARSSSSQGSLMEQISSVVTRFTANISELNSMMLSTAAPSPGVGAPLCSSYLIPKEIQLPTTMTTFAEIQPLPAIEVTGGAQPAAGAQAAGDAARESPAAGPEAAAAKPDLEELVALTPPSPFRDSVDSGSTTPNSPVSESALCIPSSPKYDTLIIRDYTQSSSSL

Row | IC50 (Table 1) | IC50 (Table 2) | Compound
1 | < 10 µM | – | N#Cc1cccnc1N1CCc2nc(-c3ccccc3)oc2C1 [Compound 19, 2-(2-Phenyl-6,7-dihydrooxazolo[5,4-c]pyridin-5(4H)-yl)nicotinonitrile]
2 | – | < 1 µM | Cc1nc(-c2nc3c(o2)CCN(c2ccccn2)C3)cs1 [Compound 161, 2-(2-Methylthiazol-4-yl)-5-(pyridin-2-yl)-4,5,6,7-tetrahydrooxazolo[4,5-c]pyridine]
3 | > 10 µM | – | COc1cccc(-c2nc3c(o2)CCN(c2ncccc2C#N)C3)c1 [Compound 73, 2-(2-(3-Methoxyphenyl)-6,7-dihydrooxazolo[4,5-c]pyridin-5(4H)-yl)nicotinonitrile]
4 | – | < 1 µM | Fc1cc(F)c(F)c(N2CCc3oc(-c4ccccn4)nc3C2)c1 [Compound 188, 2-(Pyridin-2-yl)-5-(2,3,5-trifluorophenyl)-4,5,6,7-tetrahydrooxazolo[4,5-c]pyridine]
5 | < 10 µM | – | Fc1ccc(-c2nc3c(o2)CCN(c2ccccn2)C3)cc1 [Compound 48, 2-(4-Fluorophenyl)-5-(pyridin-2-yl)-4,5,6,7-tetrahydrooxazolo[4,5-c]pyridine]
6 | > 10 µM | – | N#Cc1cc(N2CCOCC2)cc(N2CCc3nc(-c4ccccn4)oc3C2)c1 [Compound 11, 3-Morpholino-5-(2-(pyridin-2-yl)-6,7-dihydrooxazolo[5,4-c]pyridin-5(4H)-yl)benzonitrile]
7 | < 1 µM | – | Clc1ccc(-c2nc3c(o2)CN(c2ccccn2)CC3)cc1 [Compound 70, 2-(4-Chlorophenyl)-5-(pyridin-2-yl)-4,5,6,7-tetrahydrooxazolo[5,4-c]pyridine]
8 | < 1 µM | – | N#Cc1cccc(CN2CCc3oc(-c4ccccn4)nc3C2)c1 [Compound 34]
9 | – | < 1 µM | N#Cc1cc(Cl)cc(N2CCc3oc(-c4ccccn4)nc3C2)c1 [Compound 186, 3-Chloro-5-(2-(pyridin-2-yl)-6,7-dihydrooxazolo[4,5-c]pyridin-5(4H)-yl)benzonitrile]
10 | – | > 10 µM | Cc1cccnc1-c1nc2c(o1)CCN(c1cccc(F)c1)C2 [Compound 122, 5-(3-fluorophenyl)-2-(3-methylpyridin-2-yl)-4,5,6,7-tetrahydrooxazolo[4,5-c]pyridine]
11 | < 1 µM | – | Cc1cccc(-c2nc3c(o2)CN(c2ncccc2C#N)CC3)c1 [Compound 59, 2-(2-m-Tolyl-6,7-dihydrooxazolo[5,4-c]pyridin-5(4H)-yl)nicotinonitrile]
12 | < 1 µM | – | Fc1cccc(N2CCCc3oc(-c4ccccn4)nc3C2)c1 [Compound 100, 5-(3-Fluorophenyl)-2-(pyridin-2-yl)-5,6,7,8-tetrahydro-4H-oxazolo[4,5-c]azepine]
13 | < 1 µM | – | N#Cc1cccc(N2CCCc3oc(-c4ccccn4)nc3C2)c1 [Compound 99, 3-(2-(Pyridin-2-yl)-7,8-dihydro-4H-oxazolo[4,5-c]azepin-5(6H)-yl)benzonitrile]
14 | < 10 µM | – | c1ccc(-c2nc3c(o2)CCN(c2ccccn2)C3)cc1 [Compound 38, 2-Phenyl-5-(pyridin-2-yl)-4,5,6,7-tetrahydrooxazolo-[4,5-c]pyridine]
15 | – | < 1 µM | COc1c(F)cc(N2CCCc3oc(-c4ccccn4)nc3C2)cc1C#N [Compound 217, 3-Fluoro-2-methoxy-5-(2-(pyridin-2-yl)-7,8-dihydro-4H-oxazolo[4,5-c]azepin-5(6H)-yl)benzonitrile]
16 | < 10 µM | – | Clc1cccc(-c2cn3c(n2)CN(c2ccccn2)CC3)c1 [Compound 107, 2-(3-Chlorophenyl)-7-(pyridin-2-yl)-5,6,7,8-tetrahydroimidazol[1,2-a]pyrazine]
17 | – | < 1 µM | COc1ccccc1N1CCc2oc(-c3ccccn3)nc2C1 [Compound 177, 5-(2-Methoxyphenyl)-2-(pyridin-2-yl)-4,5,6,7-tetrahydrooxazolo[4,5-c]pyridine]
18 | < 1 µM | – | N#Cc1cc(F)cc(N2CCCc3nc(-c4ccc(F)cn4)oc3C2)c1 [Compound 96, 3-Fluoro-5-(2-(5-fluoropyridin-2-yl)-7,8-dihydro-4H-oxazolo[5,4-c]azepin-5(6H)-yl)benzonitrile]
19 | – | > 10 µM | N#Cc1cc(F)cc(N2CCc3oc(-c4cncnc4)nc3C2)c1 [Compound 160, 3-Fluoro-5-(2-(pyrimidin-5-yl)-6,7-dihydrooxazolo[4,5-c]pyridin-5(4H)-yl)benzonitrile]
20 | – | < 1 µM | Fc1ccc(C2CCc3oc(-c4ccccn4)nc3C2)c(Cl)c1 (racemic) [Compound 223, 5-(2-Chloro-4-fluorophenyl)-2-(pyridin-2-yl)-4,5,6,7-tetrahydrobenzo[d]oxazole]

Row | IC50 (Table 1) | IC50 (Table 2) | Compound
21 | < 10 µM | – | N#Cc1cccc(C(=O)N2CCc3nc(-c4ccccn4)oc3C2)c1 [Compound 12, 3-(2-(Pyridin-2-yl)-4,5,6,7-tetrahydrooxazolo[5,4-c]pyridine-5-carbonyl)benzonitrile]
22 | – | < 1 µM | Oc1ccccc1N1CCc2oc(-c3ccccn3)nc2C1 [Compound 178, 2-(2-(Pyridin-2-yl)-6,7-dihydrooxazolo[4,5-c]pyridin-5(4H)-yl)phenol]
23 | < 1 µM | – | N#Cc1cccc(N2CCc3nc(-c4cccc[n+]4[O-])oc3C2)c1 [Compound 15, 2-(5-(3-Cyanophenyl)-4,5,6,7-tetrahydrooxazolo[5,4-c]pyridin-2-yl)pyridine 1-oxide]
24 | > 10 µM | – | c1ccc(-c2nc3c(o2)CN(c2ccccn2)CC3)cc1 [Compound 20, 2-Phenyl-5-(pyridin-2-yl)-4,5,6,7-tetrahydrooxazolo-[5,4-c]pyridine]
25 | – | > 10 µM | Fc1ccc(N2CCCc3oc(-c4ncccn4)nc3C2)cc1Cl [Compound 204, 5-(3-Chloro-4-fluorophenyl)-2-(pyrimidin-2-yl)-5,6,7,8-tetrahydro-4H-oxazolo[4,5-c]azepine]
26 | – | < 1 µM | c1ccc(-c2nc3c(o2)CCN(c2ccccc2N2CCOCC2)C3)nc1 [Compound 193, 5-(2-Morpholinophenyl)-2-(pyridin-2-yl)-4,5,6,7-tetrahydrooxazolo[4,5-c]pyridine]
27 | – | < 1 µM | Clc1ccccc1[C@H]1CCc2oc(-c3ccccn3)nc2C1 (single isomer, unassigned) [Compound 221]
28 | – | < 1 µM | COc1cc(C#N)cc(N2CCCc3oc(-c4ccccn4)nc3C2)c1 [Compound 213, 3-Methoxy-5-(2-(pyridin-2-yl)-7,8-dihydro-4H-oxazolo[4,5-c]azepin-5(6H)-yl)benzonitrile]
29 | – | < 1 µM | Fc1ccc(-c2nc3c(o2)CCN(c2cc(F)cc(Cl)c2)C3)nc1 [Compound 159, 5-(3-Chloro-5-fluorophenyl)-2-(5-fluoropyridin-2-yl)-4,5,6,7-tetrahydrooxazolo[4,5-c]pyridine]
30 | < 10 µM | – | N#Cc1cc(N2CCc3oc(-c4ccccn4)nc3C2)ccc1F [Compound 57, 2-Fluoro-5-(2-(pyridin-2-yl)-6,7-dihydrooxazolo[4,5-c]pyridin-5(4H)-yl)benzonitrile]
31 | < 10 µM | – | N#Cc1cc(N2CCc3nc(-c4ccccn4)oc3C2)ccn1 [Compound 9, 4-(2-(Pyridin-2-yl)-6,7-dihydrooxazolo[5,4-c]pyridin-5(4H)-yl)picolinonitrile]
32 | < 10 µM | – | Fc1ccc(-c2nc3c(o2)CCN(c2cnccn2)C3)cc1 [Compound 47, 2-(4-Fluorophenyl)-5-(pyrazin-2-yl)-4,5,6,7-tetrahydrooxazolo[4,5-c]pyridine]
33 | < 1 µM | – | Clc1cccc(N2CCn3nc(-c4ccccn4)nc3C2)c1 [Compound 113, 7-(3-Chlorophenyl)-2-(pyridin-2-yl)-5,6,7,8-tetrahydro-[1,2,4]triazolo[1,5-a]pyrazine]
34 | – | < 10 µM | c1ccc(-c2nc3c(o2)CCN(c2cncnc2)C3)nc1 [Compound 131, 2-(pyridin-2-yl)-5-(pyrimidin-5-yl)-4,5,6,7-tetrahydrooxazolo[4,5-c]pyridine]
35 | < 1 µM | – | N#Cc1cc(N2CCCc3nc(-c4ccccn4)oc3C2)cc(C(F)(F)F)c1 [Compound 94, 3-(2-(Pyridin-2-yl)-7,8-dihydro-4H-oxazolo[5,4-c]azepin-5(6H)-yl)-5-(trifluoromethyl)benzonitrile]
36 | < 1 µM | – | N#Cc1cc(F)cc(N2CCc3nc(-c4ccccn4)oc3C2)c1 [Compound 4, 3-Fluoro-5-(2-(pyridin-2-yl)-6,7-dihydrooxazolo[5,4-c]pyridin-5(4H)-yl)benzonitrile]
37 | < 1 µM | – | COc1cc(F)cc(N2CCc3oc(-c4ccccn4)nc3C2)c1 [Compound 56, 5-(3-Fluoro-5-methoxyphenyl)-2-(pyridin-2-yl)-4,5,6,7-tetrahydrooxazolo[4,5-c]pyridine]
38 | – | < 1 µM | Fc1ccc(-c2nc3c(o2)CCN(c2ccccc2Cl)C3)nc1 [Compound 167, 5-(2-Chlorophenyl)-2-(5-fluoropyridin-2-yl)-4,5,6,7-tetrahydrooxazolo[4,5-c]pyridine]
39 | > 10 µM | – | N#Cc1cccnc1N1CCc2oc(-c3ccc(F)cc3)nc2C1 [Compound 46, 2-(2-(4-Fluorophenyl)-6,7-dihydrooxazolo[4,5-c]pyridin-5(4H)-yl)nicotinonitrile]
40 | < 10 µM | – | N#Cc1cccc(CN2CCc3nc(-c4ccccn4)oc3C2)c1 [Compound 13]
